Results taken from patent US11345670B2, “Heterocyclic compounds for cancer imaging and treatment and methods for their use” (The University of British Columbia, priority 2015, dated 2022).

Tested on: androgen receptor (AR)
Experiment: PSA (6.1 kb)-luciferase reporter assay in LNCaP cells induced with R1881
Format: cell-based
Conditions: Homo sapiens; LNCaP cells transiently transfected with PSA (6.1 kb)-luciferase; 1 h pre-treatment with compound, then R1881 (1 nM) for 24 h; value with standard error
Protocol: LNCaP cells were transiently transfected with PSA (6.1 kb)-luciferase for 24 h prior to pre-treatment with compounds of the invention (e.g., compounds 1a, 9, 13) ranging in concentration from 62.5 ng/ml to 1.5 ug/ml for 1 hour before the addition of vehicle, or synthetic androgen, R1881 (1 nM) to induce luciferase production. After 24 h of incubation with R1881, the cells were harvested, and relative luciferase activities were determined. To determine the IC50, treatments were normalized to the predicted maximal activity induction (in the absence of test compounds, vehicle only).

| Structure (SMILES) | IC50 [µM] |
| --- | --- |
| CC(C)(c1ccc(OC[C@H](O)CCl)cc1)c1ccc(OC[C@H](O)Cn2nnc(CO)c2I)cc1 [Compound 1a, (S)-1-chloro-3-(4-(2-(4-((R)-2-hydroxy-3-(4-(hydroxymethyl)-5-iodo-1H-1,2,3-triazol-1-yl)propoxy)phenyl)propan-2-yl)phenoxy)propan-2-ol] | 3.23 |
| CC(C)(c1ccc(OCC(O)CCl)cc1)c1ccc(OCC(O)Cn2ccnc2)cc1 (stereo not drawn) [Compound 9, 1-chloro-3-(4-(2-(4-(2-hydroxy-3-(1H-imidazol-1-yl)propoxy)phenyl)propan-2-yl)phenoxy)propan-2-ol] | 8.45 |
| CC(C)(c1ccc(OCC(O)CCl)cc1)c1ccc(OCC(O)CN2CCOCC2)cc1 (stereo not drawn) [Compound 13, 1-chloro-3-(4-(2-(4-(2-hydroxy-3-morpholinopropoxy)phenyl)propan-2-yl)phenoxy)propan-2-ol] | 12.8 |
